Key:
[1] = test system: H2-uptake hydrogenase activity in S. Typhimurium 14028; experiment: Amperometric hydrogenase assay on whole cells grown with DMG; format: cell-based
Protocol: H2-uptake hydrogenase activity is required for colonization in a murine model.
Amperometric hydrogenase assays. […] Cells were suspended in phosphate-buffered saline (PBS) to a final concentration of 8×10^8, per mL and added to a sealed amperometric dual-electrode chamber, with constant stirring; 100 μL of H2-saturated phosphate-buffered saline was added to the chamber and the disappearance of H2 was recorded over time. Hydrogenase activity is expressed in nmoles of H2 oxidized per minute per 10^8 cells.

[2] = test system: MDR K. pneumoniae (ATCC BAA2472); experiment: DMG growth inhibition in liquid culture (CFU/mL); format: cell-based, Klebsiella pneumoniae
Protocol: (§1) Growth conditions. All strains were routinely grown on LB agar plates or in LB broth. For DMG-growth inhibition study, S. Typhimurium strains ATCC 14028 and ATCC 700408 were grown in M9 minimal medium (M9 minimal salts, 0.4% glucose, 2 mM MgSO4, 0.1 mM CaCl2), and 1 μg/mL thiamine, pH 7.2). K. pneumoniae was grown in “W-U” medium, modified from Bender et al. 1977 129:1001-1009, containing 60 mM K2HPO4, 33 mM KH2PO4, 0.4 mM MgSO4, 0.4% Glucose, and 5 mM urea (instead of KNO3), pH 7.4. Briefly, overnight cultures of S. Typhimurium and K. pneumoniae were harvested, spun at 14,000 rpm for five minutes, washed once with either M9 (S. Typhimurium) or W-U (K. pneumoniae) and resuspended in either M9 (S. Typhimurium) or W-U (K. pneumoniae). […] Cells were incubated for 24 hours at 37° C. with shaking at 250 rpm, then serially diluted in PBS and 5 μL of each dilution was spotted in triplicate on LB plate. Colony forming units (CFU) were counted after 16 hours at 37° C. Each growth experiment was done at least three times.

[3] = test system: S. Typhimurium (ATCC 14028); experiment: DMG growth inhibition in liquid culture (CFU/mL); format: cell-based, Salmonella enterica serovar Typhimurium
Protocol: as §1

[4] = test system: MDR S. Typhimurium (ATCC 700408); experiment: DMG growth inhibition in liquid culture (CFU/mL); format: cell-based, Salmonella enterica serovar Typhimurium
Protocol: as §1

[5] = test system: S. Typhimurium ATCC 700408; experiment: Biofilm inhibition assay (crystal violet); format: cell-based, Salmonella enterica serovar Typhimurium; settings: 18 hours with DMG
Protocol: Biofilm inhibition assay. S. Typhimurium and K. pneumoniae cultures were adjusted to an optical density (OD600) of 0.1 in fresh LB broth. H. pylori culture was adjusted to an OD600 of 0.15 in brain heart infusion (BHI) supplemented with 0.4% β-cyclodextran. […] Plates containing S. Typhimurium and K. pneumoniae were incubated at 37° C. aerobically without shaking for 18 hours. Plates containing H. pylori were incubated at 37° C. microaerobically without shaking for 48 hours. After incubation with (Na2DMG) a crystal violet biofilm assay was performed as previously described with modifications (Kwasny et al. 2010. Current Protocols in Pharmacology 50:13A. 8.1-13A. 8.23). Briefly, supernatant was removed from the wells. Next, adherent cells were gently washed with phosphate-buffered saline (PBS) and allowed to air dry for 15 minutes. Cells were then heat fixed for one hour at 60° C. before staining with 0.5% crystal violet for 5 minutes. After the crystal violet was thoroughly washed from the wells with distilled deionized water, cells were air dried for 15 minutes. Acetic acid (33%) was then added to the wells to solubilize the crystal violet. The crystal violet-acetic acid solution was transferred to a clean 96 well plate and the OD600 was measured.

[6] = test system: C. concisus (strain 13826, ATCC BAA-1457); experiment: Growth inhibition, solid plates (CFU); format: cell-based, Campylobacter concisus; settings: BA plates, 24 hours
[7] = test system: S. Typhimurium strain 14028; experiment: Typhoid fever-mouse model (survival, organ burden); format: in vivo, BALB/c mice
Protocol: The bacterial burden in livers and spleens was determined three days after infection (FIG. 5).
Mouse experiments—Infection Experiments. […] Female BALB/c mice (Charles River, Boston, Mass.) were orally inoculated individually with the S. Typhimurium strain ATCC 14028, following previously described methods (Maier et al. 2004 Infect Immun 72:6294-6299; Maier et al. 2014 PLoS One 9:e110187; Lamichhane-Khadka R et al. 2015 Infect Immun 83:311-316). Briefly, S. Typhimurium cells grown overnight in LB were harvested, washed, and suspended in sterile PBS to a final OD of OD600 0.01 (approximately 10^7 CFU/mL) and 0.1-mL volumes (10^6 bacterial cells) were introduced orally into each mouse. […] The mice were observed twice daily, and morbidity was recorded. In addition, a fourth independent experiment was performed to determine organ (liver and spleen) bacterial burdens. In this experiment, two groups of eight mice each were inoculated with S. Typhimurium 14028. […] Infection with S.T. 14028 was done as described above. Mice were euthanized 72 hours after infection. Livers and spleens were removed and homogenized in sterile PBS. Dilutions of the homogenate were plated on bismuth sulfite agar plates (BD DIFCO, Becton Dickinson, Franklin Lakes, N.J.), a selective medium for Salmonella species. Colony forming units (CFU) were counted after overnight incubation of the plates at 37° C.

[8] = oral 3 mg DMG daily, three-day treatment
[9] = oral DMG 3 mg at 24 h and 30 min before and 24 h post infection, burden three days after infection, n=8

CC(=NO)C(C)=NO [DMG, dimethylglyoxime]
increase in hydrogenase activity compared to the 1 mM DMG medium ([1]; 1 mM DMG + 50 μM NiCl2): 50% | Hydrogenase activity ([1]; DMG 0.1 mM in blood-based medium, six hours, H2-enriched microaerobic, DMG D1885 (anhydrous)): 14.0 ± 2.7 nmoles H2 oxidized per minute per 10^9 cells | Hydrogenase activity ([1]; DMG 0.5 mM): 4.6 ± 1.2 nmoles H2 oxidized per minute per 10^9 cells | Hydrogenase activity ([1]; DMG 1 mM): 3.9 ± 0.9 nmoles H2 oxidized per minute per 10^9 cells | Hydrogenase activity ([1]; DMG 1 mM + NiCl2 0.05 mM): 6.9 ± 1.7 nmoles H2 oxidized per minute per 10^9 cells | Hydrogenase activity ([1]; DMG 5 mM): 0.8 ± 0.1 nmoles H2 oxidized per minute per 10^9 cells | effect on bacterial growth ([2]; DMG at 2.5 mM, 5 mM, or 7.5 mM): no measurable effect | inhibition at 10000 µM ([2]; Klebsiella pneumoniae, ATCCBAA2472, 24 h): > 100% | effect on bacterial growth ([3]; DMG at 2.5 mM, 5 mM, or 7.5 mM): no measurable effect | inhibition at 10000 µM ([3]; Salmonella enterica, 24 h): > 100% | effect on bacterial growth ([4]; DMG at 2.5 mM, 5 mM, or 7.5 mM): no measurable effect | inhibition at 10000 µM ([4]; Salmonella enterica, 24 h): > 100% | biofilm formation [5]: able to inhibit biofilm formation | effect on growth (CFUs, colony size) ([6]; DMG 2 mM): bacteriostatic | effect on growth (CFUs) ([6]; DMG 4 mM, no CFU detected (detection limit: 200 CFUs)): bactericidal | mortality [7, 8]: 100% | postponement of time of death [7, 8]: two | mouse survival ([7]; oral 3 mg DMG six hours post-infection then daily for nine days, n=4): 50% | mouse survival ([7]; oral 3 mg DMG six hours post-infection then daily for seven days, n=8): 37.5% | bacterial colonization of livers vs non-DMG treated group [7, 9]: Significantly lower | bacterial colonization of spleens vs non-DMG treated group [7, 9]: Significantly lower

From patent publication US20220117266A1, “NICKEL CHELATION THERAPY” (priority 2019, published 2022)
